# Laboratory results published in patent US20190209581A1, “DOSAGE REGIMEN FOR TREATMENT OF SOLID TUMORS” (Eli Lilly and Company, priority 2016, published 2019).
# Entries after “also recorded” stand apart in the source; their conditions may differ.
# Legend:
# Sprague Dawley rats = assay: Toxicity study in rats, oral gavage, daily or 3 times/week for 2 weeks; format: in vivo
# Method: A study is carried out to assess the toxicity and toxicokinetics of 4,4,4-Trifluoro-N-[(1S)-2-[[(7S)-5-(2-hydroxyethyl)-6-oxo-7H-pyrido[2,3-d][3]benzazepin-7-yl]amino]-1-methyl-2-oxo-ethyl]butanamide in rats given oral gavage doses of 0, 1.3, or 4.3 mg/kg once daily for 2 weeks or 1, 3, 10, or 30 mg/kg 3 times/week for 2 weeks.
# 4,4,4-Trifluoro-N-[(1S)-2-[[(7S)-5-(2-hydroxyethyl)-6-oxo-7H-pyrido[2,3-d][3]benzazepin-7-yl]amino]-1-methyl-2-oxo-ethyl]butanamide is combined with a vehicle comprising 1% carboxymethylcellulose sodium, 0.25% polysorbate 80 and 0.05% Dow Corning® Antifoam 1510-US in purified water. Sprague Dawley CD®/IGS rats (crl:CD(SD)), International Genetic Standardization (IGS) 7-9 week old rats, 3/sex/group, Charles River Laboratories, Inc, are used for the study. Animals are fed ad libitum with 12 hours light, 12 hours dark cycle maintained in ventilated stainless-steel racks at an ambient temperature of 22.2+/[…] and relative humidity of 30% to 70%. The test compound is dosed according to Table 1. The test compound is administered by oral gavage in a volume of 10 mL/kg body weight. The duration of the study for all groups is 14 days.
# Observations, at a minimum, for Groups 01, 06 and 07 are recorded daily before dosing, approximately one (1) hour postdose, and in the afternoon except afternoon observations are not recorded on weekends. Observations for Groups 02, 03, 04, and 05 are recorded beginning on Day 3. At a minimum, observations are recorded as described on dosing days. On non-dosing days, observations are recorded at approximately the same time as for groups receiving daily doses. Animals are weighed on Days 1, 3, 6, 10, and 14. Terminal body weights are collected at scheduled necropsy. Food consumption weights are recorded on Days 1, 3, 6, 10, and 14.
# Dogs (beagle) = assay: Toxicity study in dogs, oral gavage, daily for 6 days or every other day for 3 doses; format: in vivo, dog; details: for Survival: dogs
# Method: A study is carried out to assess the Toxicity and Toxicokinetics of 4,4,4-trifluoro-N-[(1S)-2-[[(7S)-5-(2-hydroxyethyl)-6-oxo-7H-pyrido[2,3-d][3]benzazepin-7-yl]amino]-1-methyl-2-oxo-ethyl]butanamide in dogs given oral gavage doses of 0 or 1.3 mg/kg once daily for 6 days or 0.3 or 3 mg/kg every other day for a total of 3 doses. 4,4,4-Trifluoro-N-[(1S)-2-[[(7S)-5-(2-hydroxyethyl)-6-oxo-7H-pyrido[2,3-d][3]benzazepin-7-yl]amino]-1-methyl-2-oxo-ethyl]butanamide is combined with a vehicle comprising 1% carboxymethylcellulose sodium, 0.25% polysorbate 80 and 0.05% Dow Corning® Antifoam 1510-US in purified water. Dogs (beagle), Covance Research Products, 1 animal/sex/group are fed daily (soon after dosing) and are fasted overnight prior to scheduled chemistry blood collections and necropsy. The test compound is administered by oral gavage in a volume of 2 mL/kg body weight. The duration of the study for all groups is 6 days.
# Groups 01 and 04: At a minimum, observations are recorded daily before dosing, approximately 1 hour postdose, and in the afternoon, with the following exception: afternoon clinical observations are not recorded on weekends.
# Groups 02 and 03: At a minimum, observations are recorded before dosing, approximately 1 hour postdose, and in the afternoon on Days 2 and 6; before dosing and approximately 1 hour postdose on Day 4; and at approximately the same times as Groups 01 and/or 04 on Days 3, 5, and 7.
# Animals are weighed on Days 1 and 7.
# A qualitative assessment of food consumption is made each day by visual estimation of the amount of food remaining (recorded in increments of 25%).
# Groups 01 and 04: Blood samples are collected before dosing on Day 1 and on Day 7 (not dosed on Day 7).
# Groups 02 and 03: Blood samples are collected before dosing on Days 1 and 6.
# Urine samples are collected from all animals by cystocentesis at the scheduled necropsy.
smiles,measurement,setting,value
"C[C@H](NC(=O)CCC(F)(F)F)C(=O)N[C@@H]1C(=O)N(CCO)c2ncccc2-c2ccccc21 [Compound 1, 4,4,4-trifluoro-N-[(1S)-2-[[(7S)-5-(2-hydroxyethyl)-6-oxo-7H-pyrido[2,3-d][3]benzazepin-7-yl]amino]-1-methyl-2-oxo-ethyl]butanamide]",Tolerability of once daily administration at same total weekly dose,"Sprague Dawley rats; rat, in vivo",once daily administration is not tolerated
same,"Compound related toxicities, kidney","Sprague Dawley rats; rat, in vivo, 10 mg/kg",minimal to slight renal tubular degeneration
same,"Gastrointestinal toxicity, daily versus three times/week at same total weekly dose","Sprague Dawley rats; rats, 1.3 mg/kg daily or 3 mg/kg three times/week, 4.3 mg/kg daily or 10 mg/kg three times/week",more severe gastrointestinal toxicity with daily dosing compared to three times/week dosing
same,Survival,"Sprague Dawley rats; rats, 2 of 3 female TK animals, daily doses of 1.3 mg/kg",euthanized on Day 10 due to poor condition
same,Survival,"Sprague Dawley rats; rats, TK animals, daily doses of 4.3 mg/kg","found dead on Days 7, 8, or 10"
same,Survival,"Sprague Dawley rats; rats, all non-TK, male TK and 1 of 3 female TK animals, daily doses of 1.3 mg/kg",survived until the scheduled study termination
same,Survival,"Sprague Dawley rats; rats, all non-toxicokinetic animals, 30 mg/kg 3 times/week",euthanized on Day 10 due to poor condition
same,Survival,"Sprague Dawley rats; rats, animals given daily doses of 4.3 mg/kg (other than TK)",euthanized on Day 10 due to poor condition
same,Survival,"Sprague Dawley rats; rats, non-TK animals given ≤10 mg/kg and TK animals given ≤3 mg/kg 3 times/week",survived until the scheduled study termination
same,Survival,"Sprague Dawley rats; rats, two of three TK animals, 10 mg/kg 3 times/week",euthanized on Day 10 due to poor condition and the remaining TK animal was found dead prior to the 48 hr TK time point on Day 16
same,Compound-related signs,"Dogs (beagle); both, beagle, dog, in vivo, 1.3 mg/kg, 6 days","lateral recumbency and labored respiration for the female on Day 7, decreased activity for both animals on Days 6 and 7, and dehydration (decreased skin elasticity) for both animals on Day 7"
same,Food consumption,"Dogs (beagle); dog, in vivo",Decreased food consumption also occurred in all compound-treated groups
same,"Gastrointestinal toxicity, daily versus three times/week at same total weekly dose","Dogs (beagle); dog, in vivo",more severe gastrointestinal toxicity compared to three times/week dosing
same,Tolerability of once daily administration at same total weekly dose,"Dogs (beagle); dog, in vivo",once daily administration is not tolerated
same,Compound-related signs,"Dogs (beagle); dog, in vivo, 0.3 mg/kg","mucoid, and watery feces"
same,Pathology findings,"Dogs (beagle); dog, in vivo, 0.3 mg/kg",adverse inflammatory changes in the large intestine and evidence of systemic inflammation
same,Intestinal changes,"Dogs (beagle); dog, in vivo, 1.3 mg/kg","up to marked mucoid enteropathy with red fluid intestinal contents, erosion, ulceration, and mostly neutrophilic mixed inflammation"
same,Other symptoms (feces),"Dogs (beagle); dog, in vivo, 1.3 mg/kg","red, dark (female only), mucoid, and watery (female only), feces"
same,Compound-related signs,"Dogs (beagle); dog, in vivo, 3 mg/kg","red (male only), mucoid, and watery (male only), feces"
same,Survival,Dogs (beagle); 1.3 mg/kg daily,euthanized following 6 daily doses due to poor condition
same,Survival,"Dogs (beagle); 0.3 or 3 mg/kg 3 times/week (Days 2, 4, and 6)",survived until the scheduled termination; also recorded: survived until the scheduled necropsy
